# Results: the SangsterLogP compilation
# Assay: method code SF-HPLC, from DOI: 10.2478/s11532-013-0336-y
row,logP,SMILES
1,2.93,C/C=C/c1cc(OC)cc(OC)c1OC
2,1.45,CCC(O)c1cc(OC)c(OC)c(OC)c1 (stereo not given)
3,3.97,CCC/C=C\c1c(OC)cc(OC)cc1OC
4,2.73,C/C=C/c1c(OC)ccc(OC)c1OC
5,4.57,CCCC/C=C\c1c(OC)cc(OC)cc1OC
6,3.81,C=CCOc1c(OC)cc(C=CCC)cc1OC
7,4.5,CCCCCC=Cc1cc(OC)c(OC)c(OC)c1
8,2.61,C/C=C/c1c(OC)cc(OC)cc1OC
9,3.06,CC/C=C\c1cc(OC)c(OC)c(OC)c1
10,4.1,CCCCC=Cc1cc(OC)c(OC)c(OC)c1
11,3.56,CC/C=C\c1c(OC)cc(OC)cc1OC
12,3.67,CCCC=Cc1cc(OC)c(OC)c(OC)c1

# Continued, compound first:
row,SMILES,logP
1,C/C=C/c1cc(OC)c(OC)c(OC)c1,2.27
2,CCCCC(O)c1cc(OC)c(OC)c(OC)c1 (stereo not given),2.49
3,CCC=Cc1cc(OC)c(OC(=O)c2cccnc2)c(OC)c1,3.5
4,C/C=C/c1cc(OC)c(OC)cc1OC,2.44
5,C=CCOc1c(OC)cc(C=CC)cc1OC,3.22
6,CCCCCC(O)c1cc(OC)c(OC)c(OC)c1 (stereo not given),2.9
7,C/C=C/c1ccc(OC)c(OC)c1OC,3.09
8,CCCCCCC(O)c1cc(OC)c(OC)c(OC)c1 (stereo not given),3.59
9,CCCC=Cc1cc(OC)c(OC(=O)c2cccnc2)c(OC)c1,3.96
10,CCCCCCCC(O)c1cc(OC)c(OC)c(OC)c1 (stereo not given),3.95
11,CCCC(O)c1cc(OC)c(OC)c(OC)c1 (stereo not given),1.94
12,C=CCOc1c(OC)cc(C=CCCC)cc1OC,4.28
13,CC=Cc1cc(OC)c(OC(=O)c2cccnc2)c(OC)c1,2.94
